We go through three compounds from patent US11499168B2, “Allele editing and applications thereof” (UNIVERSITÄT BASEL, priority 2016, dated 2022).

The test system of one data set is CD90.1. Put plainly: CD90.1 gene deletion by sgRNA in Balb/c CD4+ T cells, flow cytometry. The following applies: sgRNA alone, no template; FIG. 2A. A general note: A flow cytometer gives signals particle by particle.
Data set [1] is described as follows: Water solubility of HDR enhancing reagents. Format: physicochemical.
A further data set deals with EL-4 cells. Particulars: vanillin vs absence of vanillin; templates 160 bp, 1 kb, 2 kb, 4 kb; FIG. 2F.
The test system of the next data set is Foxp3K276X mutation. Put plainly: Foxp3 gene repair in Foxp3K276X CD4+ T cells, flow cytometry of CD25 and Foxp3. Type of data set: cell-based, mouse. An excerpt:
A) Alignment of genomic DNA sequences of wildtype foxp3 (C57BL/6) (SEQ ID NO 038), the Foxp3 locus with a targeted mutation Foxp3K276X (SEQ ID NO 039) which introduces a premature stop codon and the Foxp3 locus of scurfy mice (B6.Cg-Foxp3sf/J) which harbor a spontaneous 2 bp insertion leading to a frame-shift (SEQ ID NO 040). sgRNA binding sites (green line) and PAM sequences (black line). B) Protocol for gene editing of total CD4+ T cells from Foxp3K276X C57BL/6 mice. In vitro activation and electroporation (step 1) with plasmids encoding sgRNA targeting the Foxp3K276X mutation and a circular plasmid containing a 1 kb wildtype (wt) Foxp3 repair template. Successfully transfected cells are isolated based on GFP expression (step 2). Cell expansion in vitro for gene editing in presence of rhIL-2, TGF-β alone or in combination with retinoic acid (RA) and cytokine neutralizing antibodies (anti-IL-4 and anti-IFNγ for 7 days (step 3). C) Experimental setup as in B with total CD4+ T cells from control mice (WT) or Foxp3K276X mice. Flow cytometry of CD25 and Foxp3 expression (gated on live CD4+ T cells). […] Top row: Foxp3 induction with TGF-β alone, bottom row: Foxp3 induction with TGF-β combined with RA. […]

Consider “CD90.1: sgRNA GTTTGTGAGCTTGGAGTCTG targeting CD90.1 (guide GTTTGTGAGCTTCGAGTCTC; listed as DNA, chemistry not fully specified)”, for which the “gene deletion in successfully transfected cells” value in the data set with CD90.1 was “about 20%”.

On to `COc1cc(C=O)ccc1O` [vanillin, 4-Hydroxy-3-methoxybenzaldehyde], for which the water solubility result in data set [1] is given as “only water soluble compound”. The “HDR enhancing effect as a function of dsDNA template length” value with EL-4 cells is listed as “more pronounced for shorter templates”.

On to “Foxp3K276X: sgRNA GCAAGATATCTAGTCCATTG targeting the Foxp3K276X mutation (chemistry not given here)”, for which the “Foxp3 expression, cells” value in the data set with Foxp3K276X mutation (Foxp3K276X CD4+ T cells, Foxp3 induction with TGF-β alone, FIG. 4C top) is recorded as “no Foxp3^+ cells were detected”. In the data set with Foxp3K276X mutation (Foxp3K276X cells, FIG. 4C), the Foxp3 protein expression entry was “absence of Foxp3 differentiation”.
